The values that follow come from patent US20020049157A1, “Use of proteasome inhibitors for treating cancer, inflammation, autoimmune disease, graft rejection and septic shock” (priority 1998, published 2002).

The subject of one test is Jurkat cells. Description: Proliferation of Jurkat cells. Format: cell-based. The following applies: data not shown.
For a further test, the system named is CDK2. Description: Immunoprecipitation kinase assay, CDK2. It is filed as cell-based, human. The conditions noted are these: PHA-activated T cells; LAC 10 μM added once at 0 h; at 16 h and more so at 40 h. On the procedure: Tonsillar T cells were activated with PHA (2 μg/ml) for a period as indicated in each graph. LAC (10 μM) was added once at 0 h. The cells were harvested at 16 h, 24 h, or 40 h as indicated. An equal amount of lysate protein ([…]) was precipitated with rabbit anti-CDK4, anti-CDK2 or anti-Cyclin E antisera (2.5 μg Ab/sample). The immune complexes were assayed for their kinase activities using histone H1 as a substrate. (A) CDK4 kinase activity. (B) CDK2 kinase activity. (C) Cyclin E-associated CDK activity. The membrane in (C) was subsequently hybridized with anti-Cyclin E (1 μg/ml) followed by ^125I-protein A for the evaluation of the protein level of Cyclin E.
Therefore, the proteasome activity during the early activation stage (0 h-16 h) is essential for the activation of the kinase at the G1 phase and early S phase. The unchanged CDK4 activity in the LAC-treated cells at 40 h served as an internal control for the repressed CDK2 activity and indicating the latter was not due to the viability problem.
Lymphocytes were lysed by a lysis buffer as used in the immunoblotting (Chen et al., 1996, supra), and cleared lysates were quantitated for their protein content. […] The proteins were then transferred to PVDF membranes and the signals were detected by autoradiography.

Consider `CC(=O)N[C@@H](CSC(=O)[C@]1([C@@H](O)C(C)C)NC(=O)[C@H](C)[C@@H]1O)C(=O)O` [LAC, lactacystin], for which the “proliferation of Jurkat cells” value in the test with Jurkat cells is on record as “potently inhibited”. The CDK2 kinase activity entry in the test on CDK2 is on record as “significantly inhibited”.
